Source: patent US8883827B2, “Azole derivatives as WTN pathway inhibitors” (Oslo University Hospital HF, priority 2009, dated 2014)
Several values for one entry are separate records, joined by “and”; a condition that tells them apart may be missing. Identical values can stand only once.

Columns and labels:
[1] = molecular target: T1, c-RAF(h) (Homo sapiens, UniProt P04049); test: Kinase screen; assay type: biochemical; conditions: 0.1% DMSO control = 100%
T1 construct: purchased Millipore (KinaseProfiler service)

[2] = molecular target: T2, PKCθ(h) (Homo sapiens, UniProt Q04759); test: Kinase screen; assay type: biochemical; conditions: 0.1% DMSO control = 100%
T2 construct: purchased Millipore (KinaseProfiler service)

[3] = molecular target: T3, Rsk1(h) (Homo sapiens, UniProt Q15418); test: Kinase screen; assay type: biochemical; conditions: 0.1% DMSO control = 100%
T3 construct: purchased Millipore (KinaseProfiler Service)

[4] = molecular target: T4, PTP-1B(h) (Homo sapiens, UniProt P18031); test: Phosphatase screen; assay type: biochemical; conditions: 0.1% DMSO control = 100%
T4 construct: purchased Millipore (KinaseProfiler service)

[5] = molecular target: T5, PTPb(h) (Homo sapiens, UniProt P23467); test: Phosphatase screen; assay type: biochemical; conditions: 0.1% DMSO control = 100%
T5 construct: purchased Millipore (KinaseProfiler service)

[6] = molecular target: T6, CD45(h) (Homo sapiens, UniProt P08575); test: Phosphatase screen; assay type: biochemical; conditions: 0.1% DMSO control = 100%
T6 construct: purchased Millipore (KinaseProfiler service)

[7] = molecular target: T7, MKP5(h) (Homo sapiens, UniProt Q9Y6W6); test: Phosphatase screen; assay type: biochemical; conditions: 0.1% DMSO control = 100%
T7 construct: purchased Millipore (KinaseProfiler service)

[8] = molecular target: T8, ASK1(h) (Homo sapiens, UniProt Q99683); test: Kinase screen; assay type: biochemical; conditions: 0.1% DMSO control = 100%
T8 construct: purchased Millipore (KinaseProfiler service)

[9] = system: SW480 colorectal cells; test: SW480 xenograft in CB17/SCID mice; assay type: in vivo
Protocol: SW480 colorectal cells were injected subcutaneously into CB17/SCID mice and palpable tumors were detected within 7 days in 50% of the mice. Randomized groups of mice were injected (i.p.) daily with compound No. 1 at doses of […] or 30 mg/kg (delivered daily for five days followed by a 2-day pause) at termination, plasma was collected and tumors were isolated and weighed. 40 female […] (Taconic) were injected subcutaneously (s.c.) at the right posterior flank with 10^7 SW480 cells diluted in 100 μl PBS. Injections were initiated when tumor formation was visible in 50% of the animals (7 days). Mice were randomized and divided into three treatment groups: 150 mg/kg compound No. 1, 300 mg/kg compound No. 1 and vehicle control 1% Tween® 80 (Sigma). Daily injections (200 μl, i.p.) followed (two day injection intermissions after every fifth injection day) until experiment end (29 days). At the termination day, 24 hours after the last injection, blood was collected after cardiac puncture and the tumors were removed and weighed. The compound concentration in plasma and tumors was determined using an on-line and off-line Solid Phase Extraction-Capillary Liquid Chromatography ([…]) instrumentation coupled to a Time of Flight (TOF) mass spectrometer, as previously described (Wilson, S. R. et al., J. Sep. Sci. 28: 1751-1758, 2005). A Zorbax SB C18 5 μm 150×0.3 mm column (Agilent, […], Calif., USA) was used for separation, and a Knauer K-2600 UV detector was used as a complimentary detector. RNA was isolated from representative groups of tumors (n=5) and analysed by real-time RT-PCR as described in Example 25 for expression of Sp5. Results were calculated as the ratio of expression of Sp5 to a control gene (hGUSB). As described in standard protocols, immunostaining was performed with rabbit polyclonal smooth muscle actin (Abcam) and monoclonal β-catenin (BD Transduction LaboratoriesTM), both diluted 1:1000. Secondary antibodies used were 1:500 diluted Alexa Fluor® 594 goat anti-rabbit antibody and Alexa Fluor® 488 goat anti-mouse antibody. The sections were imaged by a Zeiss Axiovert 200M Fluorescence/Live cell Imaging Microscope with X^40 magnification and the same exposure times.

[10] = molecular target: T9, GRK5(h) (Homo sapiens, UniProt P34947); test: Kinase screen; assay type: biochemical; conditions: 0.1% DMSO control = 100%
T9 construct: purchased Millipore (KinaseProfiler service)

[11] = system: Apc^Min mice; test: Tumour growth in Apc^Min mice; assay type: in vivo
Protocol: Cages containing three C57BL/6 females were crossed with one C57BL/6J-Apc^Min male. The mice were fed with 2018SX Teklad Global 18% Protein Extruded Rodent Diet (Harlan™). 5-7 day old pups were randomized and divided into two treatment groups; the test group was treated with compound (1) and the control group treated with control vehicle (1% Tween®80—Sigma). Test solutions were administered daily by subcutaneous injection into the back of the neck (10 μl solution per gram of animal weight, solution 15 mg/ml compound). Two day injection intermissions followed after every fifth injection day. At the age of 21 days, mice were genotyped and Apc^Min animals were sorted into a males and females. At the same time, subcutaneous injection of the solutions was substituted by oral administration. For oral application, compound (1) was dissolved in DMSO to […]. DMSO alone was used as a vehicle control (5 μl solution per gram of animal weight, solution 30 mg/ml). Administration was terminated at the age of 9 weeks and animals euthanased. The small intestine and colon of each animal was dissected, fixed in 10% PFA and stained with 1% methylene blue. Intestines were divided into anonymous and coded samples before manual analysis by microscopy. The frequency, distribution and size of the tumors were quantified. The mice were weighted twice a week throughout the experiment. All animal experiments were approved by local ethics authorities at Forsøksdyrutvalget, Oslo, Norway, and were carried out following accepted ethical standards. […] For each statistical comparison, a Shapiro-Wilk normality test was performed along with a Students t-test if passed (P>0.05). When normality could not be achieved in the Shapiro-Wilk test, a Mann-Whitney rank sum test was used instead of Students t-test. The α-level was set to 0.05 and a difference with P<0.05 was considered to be statistically significant. Sample size (n), median, range, maximum, minimum, mean, standard deviation, standard error, and confidence intervals (C.I. of mean) are listed.

[12] = system: Xenopus embryos; test: Xenopus laevis axis duplication assay (XWnt8 mRNA); assay type: in vivo; conditions: 0.4 pmol injected, scored after 36 h; compared to DMSO controls
Protocol: Injection of ectopic XWnt8 mRNA into the prospective ventral side activates canonical Wnt pathway signaling and induces a secondary body axis. This assay provides a reliable method to test biological effects of compounds with potential effects on Wnt signaling. […] The embryos were incubated at 19° C. and axis duplication was scored after 36 hours.

[13] = molecular target: T10, MSK2(h) (Homo sapiens, UniProt O75676); test: Kinase screen; assay type: biochemical; conditions: 0.1% DMSO control = 100%
T10 construct: purchased Millipore (KinaseProfiler service)

[14] = Test female, s.c. then oral 150 mg/kg, to age 9 weeks
[15] = Test male, s.c. then oral 150 mg/kg, to age 9 weeks

T2 sequence (Q04759 whole entry): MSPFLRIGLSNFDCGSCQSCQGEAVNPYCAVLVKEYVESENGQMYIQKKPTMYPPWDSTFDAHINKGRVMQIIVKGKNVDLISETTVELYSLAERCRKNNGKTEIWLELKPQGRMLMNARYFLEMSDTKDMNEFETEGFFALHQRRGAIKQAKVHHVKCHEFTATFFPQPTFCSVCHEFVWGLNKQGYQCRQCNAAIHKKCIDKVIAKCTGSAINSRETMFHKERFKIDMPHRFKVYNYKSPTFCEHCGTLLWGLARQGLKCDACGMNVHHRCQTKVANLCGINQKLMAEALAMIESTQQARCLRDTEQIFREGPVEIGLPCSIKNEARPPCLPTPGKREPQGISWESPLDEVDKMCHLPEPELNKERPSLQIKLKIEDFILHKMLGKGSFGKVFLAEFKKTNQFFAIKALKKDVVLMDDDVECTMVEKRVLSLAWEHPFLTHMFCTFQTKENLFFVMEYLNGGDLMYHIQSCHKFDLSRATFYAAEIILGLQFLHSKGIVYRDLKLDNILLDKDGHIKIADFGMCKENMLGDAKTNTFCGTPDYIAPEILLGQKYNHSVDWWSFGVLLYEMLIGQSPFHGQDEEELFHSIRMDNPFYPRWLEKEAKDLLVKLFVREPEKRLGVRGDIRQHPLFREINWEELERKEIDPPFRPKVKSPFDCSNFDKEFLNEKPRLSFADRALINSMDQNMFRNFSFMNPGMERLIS
T4 sequence (P18031 whole entry): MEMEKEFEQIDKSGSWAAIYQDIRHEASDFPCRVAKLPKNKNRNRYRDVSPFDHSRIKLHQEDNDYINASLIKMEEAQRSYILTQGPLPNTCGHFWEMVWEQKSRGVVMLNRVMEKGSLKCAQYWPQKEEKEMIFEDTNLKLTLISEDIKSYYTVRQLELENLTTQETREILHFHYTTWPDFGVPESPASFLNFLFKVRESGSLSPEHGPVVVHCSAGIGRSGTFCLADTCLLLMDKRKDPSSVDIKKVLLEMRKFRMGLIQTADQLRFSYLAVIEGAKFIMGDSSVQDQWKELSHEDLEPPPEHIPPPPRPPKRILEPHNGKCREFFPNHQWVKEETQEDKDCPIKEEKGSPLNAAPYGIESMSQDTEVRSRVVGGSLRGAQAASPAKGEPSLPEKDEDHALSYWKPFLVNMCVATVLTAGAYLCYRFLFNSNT
T1 sequence (P04049 whole entry): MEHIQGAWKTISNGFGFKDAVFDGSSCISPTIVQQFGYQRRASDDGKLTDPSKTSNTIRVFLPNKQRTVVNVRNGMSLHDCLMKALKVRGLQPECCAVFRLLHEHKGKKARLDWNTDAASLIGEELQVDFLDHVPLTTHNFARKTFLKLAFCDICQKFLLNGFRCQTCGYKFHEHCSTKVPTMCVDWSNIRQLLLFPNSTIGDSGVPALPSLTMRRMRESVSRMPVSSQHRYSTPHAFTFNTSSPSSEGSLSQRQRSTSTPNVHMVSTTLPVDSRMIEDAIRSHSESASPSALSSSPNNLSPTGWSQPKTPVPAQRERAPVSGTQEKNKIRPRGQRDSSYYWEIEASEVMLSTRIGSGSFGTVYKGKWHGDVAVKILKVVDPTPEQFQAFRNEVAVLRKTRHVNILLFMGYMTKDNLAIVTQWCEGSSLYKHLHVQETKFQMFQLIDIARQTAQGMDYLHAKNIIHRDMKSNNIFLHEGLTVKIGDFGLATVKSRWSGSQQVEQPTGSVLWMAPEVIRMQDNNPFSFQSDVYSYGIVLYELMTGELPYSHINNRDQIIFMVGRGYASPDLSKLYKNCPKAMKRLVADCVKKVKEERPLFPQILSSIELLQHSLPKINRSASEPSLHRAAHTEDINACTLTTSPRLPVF
T7 sequence (Q9Y6W6 whole entry): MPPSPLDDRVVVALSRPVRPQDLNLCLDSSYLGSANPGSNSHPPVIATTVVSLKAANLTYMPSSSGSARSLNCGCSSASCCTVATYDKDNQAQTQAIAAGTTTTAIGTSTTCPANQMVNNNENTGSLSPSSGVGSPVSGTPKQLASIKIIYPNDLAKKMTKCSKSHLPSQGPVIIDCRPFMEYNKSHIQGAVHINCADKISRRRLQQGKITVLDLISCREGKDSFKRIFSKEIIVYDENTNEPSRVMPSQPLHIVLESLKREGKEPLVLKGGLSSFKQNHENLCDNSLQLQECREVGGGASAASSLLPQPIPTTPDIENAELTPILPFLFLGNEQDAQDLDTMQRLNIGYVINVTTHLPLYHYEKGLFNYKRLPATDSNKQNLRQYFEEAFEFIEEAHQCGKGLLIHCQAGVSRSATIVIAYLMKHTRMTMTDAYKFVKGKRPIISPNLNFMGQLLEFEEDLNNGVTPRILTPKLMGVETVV
T9 sequence (P34947 whole entry): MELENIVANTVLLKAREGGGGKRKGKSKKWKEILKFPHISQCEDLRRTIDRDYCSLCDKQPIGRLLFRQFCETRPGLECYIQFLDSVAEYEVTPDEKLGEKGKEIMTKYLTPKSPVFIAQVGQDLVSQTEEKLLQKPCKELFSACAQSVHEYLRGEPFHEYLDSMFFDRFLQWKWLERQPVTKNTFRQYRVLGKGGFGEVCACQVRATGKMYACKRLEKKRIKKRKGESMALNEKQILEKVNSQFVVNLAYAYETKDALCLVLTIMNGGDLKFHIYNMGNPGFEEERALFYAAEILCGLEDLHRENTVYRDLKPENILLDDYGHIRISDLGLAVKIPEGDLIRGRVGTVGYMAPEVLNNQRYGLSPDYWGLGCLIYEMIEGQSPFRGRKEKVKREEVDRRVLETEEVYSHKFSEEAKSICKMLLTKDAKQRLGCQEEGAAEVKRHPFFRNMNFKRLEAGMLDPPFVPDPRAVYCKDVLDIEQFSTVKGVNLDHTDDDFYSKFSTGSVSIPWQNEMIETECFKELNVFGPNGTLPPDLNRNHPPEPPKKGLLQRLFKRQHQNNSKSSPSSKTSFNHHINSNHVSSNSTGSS
T10 sequence (O75676 whole entry): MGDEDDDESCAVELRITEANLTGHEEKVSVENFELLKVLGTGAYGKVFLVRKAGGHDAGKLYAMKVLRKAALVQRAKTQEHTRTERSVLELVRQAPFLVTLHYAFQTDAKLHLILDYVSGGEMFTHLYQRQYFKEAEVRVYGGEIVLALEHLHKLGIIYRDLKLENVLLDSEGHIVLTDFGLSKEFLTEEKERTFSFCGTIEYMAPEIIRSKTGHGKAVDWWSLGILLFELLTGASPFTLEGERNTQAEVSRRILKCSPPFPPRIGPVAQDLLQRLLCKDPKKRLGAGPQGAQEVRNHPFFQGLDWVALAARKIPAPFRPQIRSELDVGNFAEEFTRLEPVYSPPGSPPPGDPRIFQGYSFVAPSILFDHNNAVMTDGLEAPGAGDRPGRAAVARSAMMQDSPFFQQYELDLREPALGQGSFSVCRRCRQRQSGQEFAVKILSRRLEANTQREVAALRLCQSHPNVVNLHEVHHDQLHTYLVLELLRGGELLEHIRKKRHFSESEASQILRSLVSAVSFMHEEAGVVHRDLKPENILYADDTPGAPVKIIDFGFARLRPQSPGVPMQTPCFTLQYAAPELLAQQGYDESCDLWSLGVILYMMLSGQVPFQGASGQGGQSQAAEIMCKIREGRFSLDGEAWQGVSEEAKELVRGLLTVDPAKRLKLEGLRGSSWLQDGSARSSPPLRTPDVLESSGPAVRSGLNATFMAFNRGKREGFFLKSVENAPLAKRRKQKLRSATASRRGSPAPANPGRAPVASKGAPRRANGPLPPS
T3 sequence (Q15418 whole entry): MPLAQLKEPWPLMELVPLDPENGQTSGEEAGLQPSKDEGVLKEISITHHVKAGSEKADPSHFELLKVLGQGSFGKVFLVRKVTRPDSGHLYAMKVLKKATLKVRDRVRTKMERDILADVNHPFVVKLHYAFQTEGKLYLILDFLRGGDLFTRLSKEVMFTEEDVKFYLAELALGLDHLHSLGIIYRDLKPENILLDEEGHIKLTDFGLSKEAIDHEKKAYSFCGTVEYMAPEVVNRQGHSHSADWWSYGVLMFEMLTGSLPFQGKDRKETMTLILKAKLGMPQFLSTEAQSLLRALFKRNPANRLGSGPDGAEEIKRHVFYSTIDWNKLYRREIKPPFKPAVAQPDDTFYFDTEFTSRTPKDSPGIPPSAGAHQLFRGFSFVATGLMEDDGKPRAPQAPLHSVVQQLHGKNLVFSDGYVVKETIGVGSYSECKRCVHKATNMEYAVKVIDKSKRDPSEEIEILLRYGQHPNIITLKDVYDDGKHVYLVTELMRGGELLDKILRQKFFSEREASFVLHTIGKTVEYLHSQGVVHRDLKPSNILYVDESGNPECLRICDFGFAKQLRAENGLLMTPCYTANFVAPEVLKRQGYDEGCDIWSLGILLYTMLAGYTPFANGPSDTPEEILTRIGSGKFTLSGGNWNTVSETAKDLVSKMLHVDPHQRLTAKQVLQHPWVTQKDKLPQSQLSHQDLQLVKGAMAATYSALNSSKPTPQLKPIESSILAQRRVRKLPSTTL

Compound: COc1ccc(-n2c(SCc3nc(-c4ccc(C)cc4)no3)nnc2-c2ccncc2)cc1 [Compound 1]
- activity at 10 µM [1]: 98%
- activity at 10 µM [2]: 109%
- activity at 10 µM [3]: 108%
- activity at 10 µM [4]: 105%
- activity at 10 µM [5]: 106%
- activity at 10 µM [6]: 108%
- activity at 10 µM [7]: 99%
- activity at 10 µM [8]: 106%
- reduction in tumor size, on average ([9]; 150 mg/kg i.p. daily (5 days on, 2 off), 29 days): 33%
- reduction in tumor size, on average ([9]; 300 mg/kg i.p. daily (5 days on, 2 off), 29 days): 35%
- adverse side effects, such as weight loss, during treatment ([9]; 150 or 300 mg/kg i.p., 29 days): No obvious adverse side effects
- SP5 mRNA in tumors (real-time RT-PCR, relative to hGUSB) ([9]; both 150 mg/kg and 300 mg/kg doses): down-regulated
- activity at 10 µM [10]: 104%
- number of colon tumours, Max ([11]; Test (male + female), control max 6): 2
- number of small intestine tumours, Max ([11]; Test (male + female), control max 295): 53
- number of colon tumours, Mean ([11]; Test (male + female), control mean 1.783, P=0.003): 0.42 and 0.429
- number of small intestine tumours, Mean ([11]; Test (male + female), control mean 74.8, P=0.036): 36.1
- number of colon tumours, Median ([11]; Test (male + female), control median 1): 0
- number of small intestine tumours, Median ([11]; Test (male + female), control median 45): 35
- number of colon tumours, Min ([11]; Test (male + female), control min 0): 0
- number of small intestine tumours, Min ([11]; Test (male + female), control min 25): 19
- number of small intestine tumours, Max [11, 14]: 51
- number of small intestine tumours, Mean [11, 14]: 33.5
- number of small intestine tumours, Median [11, 14]: 33
- number of small intestine tumours, Min [11, 14]: 19
- number of small intestine tumours, Max [11, 15]: 53
- number of small intestine tumours, Mean [11, 15]: 39.1
- number of small intestine tumours, Median [11, 15]: 37
- number of small intestine tumours, Min [11, 15]: 22
- difference in the bodyweight of male or female mice ([11]; after the treatments, versus vehicle group): No substantial difference
- tumour frequencies among size classes between 0.10 mm^2 and 3.20 mm^2, small intestine ([11]; compared to control): drastically reduced
- tumours in the last two-thirds of the small intestine ([11]; compared to control): substantially fewer tumours
- total tumor load in the small intestine (sum of all tumors in mm^2/n) ([11]; control 38.1 mm^2/subject): 16.4 mm^2/subject
- reduction in double axis formation [12]: 87%
- activity at 10 µM [13]: 108%
